The source of these data is patent US20220143148A1, “COMPOSITIONS AND METHODS FOR MODULATING CGRP SIGNALING TO REGULATE INTESTINAL INNATE LYMPHOID CELLS” (The Broad Institute, Inc., priority 2019, published 2022).

The test system of this assay is KLRG1+ ILC2s. The experiment in a line: In vitro proliferation assay (CellTrace Violet, flow cytometry). The assay is classed as cell-based, mouse. The settings on record: IL-25 plus α-CGRP, 60 hours; P=0.01, t-test. Here is the method: Flow cytometry and cell sorting. Cells were washed and suspended in MACS buffer (pH 7.4; PBS plus 2% FCS and 2 mM EDTA). Nonspecific antibody binding was blocked with CD16/CD32 (2.4G2) antibody for 15 min on ice. Cells were then stained with antibody cocktails for 30 min at 4° C. Lineage-positive cells were excluded for analyzing ILCs by staining for CD3ε (145-2C11), CD5 (53-7.3), CD19 (6D5), CD11b (M1/70), CD8 (53-6.7), CD11c (N418), Gr-1 (RB6-8C5), TCRγδ (eBioGL3 (GL-3, GL3)) and TCRβ (H57-597). To analyze mast cells, lineage-positive cells were excluded by staining for CD3ε, CD5, CD19, CD11c and SiglecF (E50-2440). For surface staining, antibodies for KLRG1 (2F1), CD45 (30-F11), CD127 (A7R34), CCR6 (29-2L17), NKp46 (29A1.4), CD90.2 (53-2.1), FcεRI (Mar-1), IgD (11-26c.2a) and ST2 (DJ8) were used. For intracellular staining, cells were fixed and permeabilized using the Foxp3 transcription factor staining buffer set, followed by staining with anti-GATA-3 (TWAJ) or anti-RORγt (B2D) antibodies. Dead cells were excluded with 7-AAD or Fixable Viability Dye eFluor 780. Flow cytometry was performed on Cytoflex (Beckman Coulter) and analyzed with FlowJo software. Sorting was performed with the SH800S Cell Sorter (Sony Biotechnology).
ILC2 culture. […]

Consider “α-CGRP: neuropeptide alpha-calcitonin gene-related peptide, encoded by exon 5 of Calca; administered as peptide”, for which the IL-25-induced cell division result was “significantly suppressed”.
